How the values were obtained:
[1] = tested on: Primary Rat cortical astrocytes; test: Proliferation assay (cell confluence), astrocytes; assay type: cell-based; settings: at 5 μM
Experimental: C2Cl2 were plated at 15,000 cells per well and then differentiated into myotubes with DMEM supplemented with 2% horse serum for 3 days in 24 well ImageLock™ plate (Essen Instruments, MI, USA). Primary Rat cortical astrocytes were plated at 3.105 cells/ml onto 24 well ImageLock™ plate.
Cells were placed into the IncuCyte™ at 37° C. and 95% CO2/5% O2, for two to three days. During this time, the cells within each well were repeatedly imaged at fixed time intervals (every three hours). The IncuCyte™ system automatically monitored the proliferation using the percentage of confluence. Percent of confluence can be graphed over time to evaluate the characteristics of proliferation in the presence of pharmacological agents.
Compounds were tested at 5 μM in quadruplicate. The percentage of reduction of cell confluence was calculated from the AUCs in comparison with the AUCs of the control wells (1% DMSO).

P60c-src = target: T1, P60c-src (Homo sapiens, UniProt P12931); test: Src kinase counterscreen enzymatic assay (TR-FRET); assay type: biochemical; settings: 0.5 μM ATP
T1 construct: purchased Upstate biotechnology, USA
T1 sequence (P12931 whole entry): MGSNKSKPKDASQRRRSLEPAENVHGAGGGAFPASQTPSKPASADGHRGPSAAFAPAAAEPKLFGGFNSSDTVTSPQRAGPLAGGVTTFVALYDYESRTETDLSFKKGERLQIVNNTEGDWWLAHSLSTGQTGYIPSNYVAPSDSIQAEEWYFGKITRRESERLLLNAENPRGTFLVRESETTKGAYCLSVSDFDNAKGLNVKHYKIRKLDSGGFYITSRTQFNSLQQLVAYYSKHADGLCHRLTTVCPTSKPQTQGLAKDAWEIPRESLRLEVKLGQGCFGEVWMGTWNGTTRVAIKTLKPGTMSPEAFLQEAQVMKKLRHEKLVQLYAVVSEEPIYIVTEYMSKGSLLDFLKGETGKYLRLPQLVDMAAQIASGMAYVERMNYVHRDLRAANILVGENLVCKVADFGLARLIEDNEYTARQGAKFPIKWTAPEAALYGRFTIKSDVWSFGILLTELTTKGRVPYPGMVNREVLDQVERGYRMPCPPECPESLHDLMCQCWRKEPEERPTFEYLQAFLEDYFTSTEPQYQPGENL
Experimental: Counterscreen assays were developed for the tyrosine kinases src kinase and Jak2 kinase, with a format essentially identical to the EphA4 kinase TR-FRET format. Jak2 (50 ng) (Cell Signaling, USA) was incubated with 0.5 μM of biotinylated FLT3 peptide (Cell Signaling, USA) in presence of 5 μM of ATP (Sigma). P60c-src (10 U/well) (Upstate biotechnology, USA) was incubated with biotinylated Poly(Glu Tyr) peptide (100 nM) in presence of 0.5 μM of ATP. The enzymatic reaction was stopped after 60 min by adding 15 mM EDTA. The detection reaction and energy transfer signal measurements were similar to those previously described. Results were expressed as ratios of the absorbencies 665/615.
Compounds were titrated in duplicate at 11 points concentration starting at 100 μM with a 3 fold increment. Compounds were diluted in DMSO. […] Percentage inhibition for each compound was then calculated based on the value of the 100% inhibition. Concentration-response curves were represented and the concentrations for 50% inhibition (IC50) were calculated.

CHO-K1 cells = test: Cell viability (Cell Glo Assay) on parallel plates of the EphA4 cell assay; assay type: cell-based, Chinese Hamster; settings: at 100 μM
Experimental: Transfection and Luciferase Assay: CHO-K1 cells were plated in T-175 cell culture bottle in DMEM medium supplemented with 10% fetal bovine serum, 1 mM sodium pyruvate, 2 mM L-glutamine and 1.5 g/L sodium bicarbonate. When cell reached 70-80% confluence, transfections were performed in T-175 culture flasks, using Lipofectamine 2000™ transfection reagent (Invitrogen) according to the manufacturer's directions. For the luciferase assay CHO-K1 cells were co-transfected the next day with 50 μg of pGAS-Luc, 70 μg of EphA4, and 5 μg of empty vector pRL-CMV, which encoded the Renilla luciferase, and was included in the transfection mix for normalization. […] Cells were lysed the next day using the Reporter Lysis Buffer (Promega), and the luciferase activity was measured using the Dual Luciferase Assay (Promega) following the manufacturer's directions. The Firefly and Renilla luminescences are read consecutively on a Top-Count (Perkin-Elmer). Results are expressed as a ratio of the two luminescence: Firefly Luciferase/Renilla Luciferase. Cell viability was assessed on parallel plates using the Cell Glo Assay (Promega) following the manufacturer's directions. Results are expressed as percent of cell death in comparison with vehicle-treated wells.

[2] = tested on: Primary Rat cortical astrocytes; test: Scratch wound assay, astrocytes; assay type: cell-based; settings: from AUC of % wound confluence; for IC50: Rattus norvegicus, Astrocyte, inflexion point, read-out: Scratch Assay Astrocytes IP
Experimental: Primary Rat cortical astrocytes were purchased from Lonza (Walkersvelle Inc., MA, USA). Cells were plated in culture flasks at a density of 1.106-3.106 cells/ml, and maintained at 37° C. and 95% CO2/5% O2, in Astrocyte Growth Medium Bulletkit™ (Lonza Walkersville Inc., MA, USA). When astrocyte cultures reached confluence, cells were trypsinized and replated at 6.105 cells/ml onto 24 well ImageLock™ plate (Essen Instruments, MI, USA).
Scratch wound assays are commonly used to assess the effects of drugs and drug candidates on the cellular proliferation and/or migration associated with wound closing. The IncuCyte™ system (Essen Instruments, MI, USA), an automated imaging platform, provides ongoing, real-time images and quantitative data generated throughout the wound-closing process. Cells were maintained in 24 well ImageLock™ (Essen Instruments, MI, USA) at 37° C. and 95% CO2/5% O2, until a confluent monolayer was achieved. A single scratch wound was then created in each well using the Essen Woundmaker™ (Essen Instruments, MI, USA). It induced a mechanical scratch of the cell monolayer using plastic pipette tips (10-20 μl pipette tips, Eppendorff). Dead cells and other debris produced by the scratch were immediately washed with regular growth media. Cells were then treated with pharmacological agents and were placed into the IncuCyte™ at 37° C. and 95% CO2/5% O2, for two to three days. During this time, the wound area within each well was repeatedly imaged at fixed time intervals (every three hours). The IncuCyte™ scratch wound software generates a “wound mask” for each well. An initial wound mask is created for the first image (at time 0) that clearly delineates the border of the wound. A revised mask is generated for each subsequent image to track wound closure. Wound closure can be automatically monitored using the wound confluence (% confluence). Wound confluence can be graphed over time to evaluate the characteristics of wound closing in the presence of pharmacological agents.
The calculation of the area under the curve (AUC) of the % confluence function of the time gave a quantitative measurement of compounds efficacy on the scratch wound closing. Compounds were titrated in quadruplicate at 5 points concentration starting at 20 μM with a two-fold increment. The percentage of inhibition was calculated from the AUCs at each dose in comparison with the AUCs of the control wells (1% DMSO). Concentration-response curves were represented and the concentrations at the inflexion point (IP) were calculated. The maximum effect was given by the maximum percent inhibition.

CC1CCc2c(-c3ccccc3Cl)nc3[nH]nc(N)c3c2C1 (stereo not shown) [Example 63]
% Reduction of Confluence Astrocytes [1]: 14.8% at 5 μM | IC50 (P60c-src): 8.3 µM | Max Toxicity Cell Assay % of cell death (CHO-K1 cells): 68% at 100 μM | IC50 [2]: 49 µM | Scratch Assay Astrocytes max inhibition in % [2]: 33%

Cc1ccccc1-c1nc2[nH]nc(N)c2c2c1CCC(C)(C)C2 [Example 67]
% Reduction of Confluence Astrocytes [1]: 29.1% at 5 μM | IC50 (P60c-src): 0.3 µM | Max Toxicity Cell Assay % of cell death (CHO-K1 cells): 76% at 100 μM | IC50 [2]: 1.4 µM | Scratch Assay Astrocytes max inhibition in % [2]: 66%

Reference: US20100113415A1, “EPHA4 RTK INHIBITORS FOR TREATMENT OF NEUROLOGICAL AND NEURODEGENERATIVE DISORDERS AND CANCER” (priority 2008, published 2010)
